Experimental findings from patent US4742058A, “Polyprenyl compound, process for the production thereof and drug containing the same” (Eisai Co., Ltd., priority 1982, dated 1988) are described below.

Test [1] concerns platelet aggregation provoked by PAF (washed rabbit platelets). Description: Anti-PAF activity (inhibition of PAF-provoked platelet aggregation in washed platelets, nephelometry). The test is classed as cell-based. The conditions noted are these: Oryctolagus cuniculus, PAF 30 ng/ml, read-out: Inhibition rate PAF. As for the experimental part:
(a) Preparation of washed platelet suspension (hereinafter referred to as W.P.)
(§1) A blood sample was collected from a carotid artery of a male rabbit weighing 2.5 kg, while adding thereto one volume of a 3.13% sodium citrate solution per 9 volumes of blood as a […]. The resulting blood was centrifuged at 200 xg for 20 minutes to separate out platelet-rich plasma (hereinafter referred to as PRP). This PRP was centrifuged at 1,000 xg for 15 minutes to separate the platelets from the plasma. The deposited platelets were washed twice with a Tyrode solution (Tyrode-Ca^++), from which Ca^++ had been removed and to which 1% bovine serum albumin (BSA) had been added, such that 9×10^5 platelets per μl were finally suspended in the Tyrode solution.
(b) Preparation of specimens and PAF
Specimens were dissolved or suspended in a physiological saline. PAF was dissolved in a Tyrode solution containing 1% BSA. PAF synthesized from D-mannitol in accordance with a method disclosed by J. J. Godfroid et al was used (FEBS Letters 116, 161-164, 1980).
(c) Measurement of platelet aggregation
(§2) Platelet aggregation measurements were conducted according to nephelometry described by Born et al using a platelet aggregation meter manufactured by Schenko Co. Specimen solutions having various concentrations of test compounds and 0.25 ml of W.P. were subjected to preincubation at 37° C. for 4 minutes, and then PAF was added thereto to give a final PAF concentration of 30 ng/ml to provoke platelet aggregation. The transmittance of the W.P. before aggregation, that is, before the addition of the aggregation provoking agent, was rated as 0, and the transmittance of the Tyrode solution was rated as 100. After the addition of the PAF solution to the W.P., light transmittance increased as aggregation proceeded. The value of the light transmittance at the time when the aggregation had proceeded to a maximum was rated as the maximum aggregation (hereinafter referred to as MA) which was used as an index of the degree of aggregation.
(§3) The inhibition rate was calculated according to the following equation. The aggregation in a W.P.-containing physiological saline solution free of test compound, as a control, was rated as 0% aggregation inhibition. [formula] wherein M.A. Control: maximum aggregation after platelet aggregation in PAF was provoked, after the addition of physiological saline.
M.A. Sample: maximum aggregation after platelet aggregation in PAF was provoked, after the addition of the test compound.

In test [2] the test system is platelet aggregation provoked by bovine thrombin (washed rabbit platelets). Description: Antithrombic activity (inhibition of thrombin-provoked platelet aggregation). The test is classed as cell-based. Particulars: Oryctolagus cuniculus, bovine thrombin 0.2 units/ml, read-out: Inhibition rate Thrombin (%). As for the experimental part: as §1, §2, §3
(2) Antithrombic activity
The measurement of the antithrombic activity was conducted in the same manner as described above, except that bovine thrombin at a final concentration of 0.2 units/ml was used as the platelet aggregation provoking agent in place of PAF.

Turning to `CC(C)=CCC/C(C)=C/CC/C(C)=C/CC/C(C)=C/CNC(=O)CCN`, in test [1], the inhibition – broadly, how much of the control response was suppressed – at 20 µM was determined as 59.1%.
For `CC(C)CCCC(C)CCCc1ccc(C(C)CC(=O)N(CCN(C)C)CCN(C)C)cc1` (centres unmarked), in test [1], the inhibition at 20 µM stood at 57.8% and the inhibition at 50 µM worked out at 82.6%.
Regarding `CC(C)=CCC/C(C)=C/CC/C(C)=C/CC/C(C)=C/C(=O)N(CCO)CCO`, the inhibition at 50 µM in test [1] is 76.4%.
Consider `CC(C)CCCC(C)CCCC(C)Cc1ccc(C(=O)N(CCN(C)C)CCN(C)C)cc1` (centres unmarked), for which the inhibition at 20 µM in test [1] amounted to 74.7%; in test [2], 78.8%.
Consider `CC(C)=CCC/C(C)=C/CC/C(C)=C/C(=O)NCCO`, for which, in test [1], the inhibition at 50 µM is 18.7%.
Turning to `CC(C)CCCC(C)CCCC(C)Cc1ccc(C(=O)N(CCN(C)C)CCN(C)C)c2c1CCCC2` (centres unmarked), the inhibition at 20 µM in test [1] amounted to 50.5%.
With `CC(C)=CCC/C(C)=C/CC/C(C)=C/CC/C(C)=C/CNCCN(C)C`, the inhibition at 20 µM in test [1] turned out to be 37.1%.
`CC(C)=CCC/C(C)=C/CC/C(C)=C/CC/C(C)=C/C(=O)N(CCN(C)C)CCN(C)C`: the inhibition at 20 µM in test [1] amounted to 88.7%; in test [2] it was 76.4%.
Regarding `CC(C)CCCC(C)Cc1ccc(C(=O)N(CCN(C)C)CCN(C)C)cc1` (centres unmarked), the inhibition at 20 µM in test [1] came out at 59.4%.
Still for that read-out and setting: then `CC(C)=CCC/C(C)=C/CC/C(C)=C/CC/C(C)=C/CNC(=O)CN(C)C`, with 60.4%; and `CC(C)CCCC(C)Cc1ccc(C(=O)NCCO)cc1` (centres unmarked), with 57.8%.
As to `CC(C)CCCC(C)CCCC(C)Cc1ccc(C(=O)N(CCN(C)C)CCN(C)C)c2ccccc12` (centres unmarked), the inhibition at 20 µM in test [1] was 59.3%.
Consider `CC(C)=CCC/C(C)=C/CC/C(C)=C/CC/C(C)=C/CC/C(C)=C/C(=O)NCCO`, for which the inhibition at 50 µM in test [1] was 22.7%.
Take `CC(C)=CCC/C(C)=C/CC/C(C)=C/c1ccc(C(=O)NCCN(C)C)cc1`: the inhibition at 20 µM in test [1] amounted to 73.5%; in test [2], 34.2%.
The matching figures for `CC(C)CCCC(C)CCCC(C)Cc1ccc(C(=O)NCCN(C)C)cc1` (centres unmarked): 80.6% and 70.3%.
Take `CC(=CC(=O)NCCO)c1ccc(CCCC(C)CCCC(C)C)cc1` (centres unmarked): the inhibition at 20 µM in test [1] was 55.9%.
In the case of `CC(C)=CCC/C(C)=C/CC/C(C)=C/c1ccc(C(=O)N(CCN(C)C)CCN(C)C)cc1`, the values for the inhibition at 20 µM in test [1] and in test [2] were 93.6% and 70.6%, respectively.
With `CC(C)=CCC/C(C)=C/CC/C(C)=C/CC/C(C)=C/C(=O)N1CCCCC1CO` (centres unmarked), the inhibition at 50 µM worked out at 34.4% in test [1] and 27.4% in test [2].
With `CC(C)CCCC(C)CCCC(C)Cc1cccc2c(C(=O)N(CCN(C)C)CCN(C)C)cccc12` (centres unmarked), the inhibition at 20 µM in test [1] was 58.3%.
As to `CC(C)=CCC/C(C)=C/CC/C(C)=C/CC/C(C)=C/C(=O)N1CCCC(O)C1` (centres unmarked), the inhibition at 50 µM in test [1] was 27.4%; in test [2], 19.2%.
On to `CC(C)=CCC/C(C)=C/CCC(C)CC(=O)NCCO` (centres unmarked), for which the inhibition at 50 µM in test [1] is 31.4%.
`CCN1CCCC(NC(=O)/C=C(\C)CC/C=C(\C)CC/C=C(\C)CCC=C(C)C)C1` (centres unmarked): the inhibition at 50 µM in test [1] was determined as 80.3%; in test [2], 24.2%.
With `CC(C)=CCC/C(C)=C/CC/C(C)=C/CC/C(C)=C/C(=O)NCCN(C)C`, the inhibition at 20 µM in test [1] amounted to 74.3%.
With `CC(=CC(=O)N(CCN(C)C)CCN(C)C)c1ccc(CCCC(C)CCCC(C)C)cc1` (centres unmarked), in test [1], the inhibition at 20 µM was determined as 63.2% and the inhibition at 50 µM stood at 82.2%.
As to `CC(C)CCCC(C)CCCC(C)Cc1ccc(C(=O)N(CCN(C)C)CCN(C)C)c(F)c1` (centres unmarked), the inhibition at 20 µM in test [1] came out at 64.9%.
